# Assay results: paper PMC10534214 (Food Chemistry: X, 2023)
# Target: T1, SaDHPS (Staphylococcus aureus, UniProt O05701, R204H/P216R)
# T1 construct: gene folP
# Conditions: read-out: SaDHPS + SIZ-2FITC / IC50 (ng/mL); tracer SIZ-2FITC; 4 mM DHPPP, 40 mM Mg2+ in reaction buffer, pH 8.0, 37 C, 2 min
smiles,measurement,value
NS(=O)(=O)c1ccccc1 [BSN],IC50,55.1 nM
